# US9097702B2, “Pathologically relevant tumor microenvironments for high-throughput drug screening” (Cornell University, priority 2008, dated 2015)
# How the values were obtained:
# [1] = tested on: MDA-MB231 breast cancer cells; test: MDA-MB231 viability in conventional 2-D culture; assay type: cell-based, human
# Description: For the drug testing studies, different doses of two frequently utilized chemotherapeutic drugs were first evaluated with regard to their ability to reduce breast cancer cell viability in conventional 2-D culture.
# (§1) Consequently, all subsequent drug testing studies were performed with doxorubicin.
# [2] = tested on: MDA-MB231 breast cancer cells; test: Doxorubicin responsiveness in 3-D cultures within RGD-modified alginate gels versus 2-D monolayer; assay type: cell-based, human; conditions: 3-D cultures within RGD-modified alginate gels vs 2-D monolayer (FIG. 5C)
# Description: To examine tumor malignancy and efficacy of anti-cancer drugs in response to enhanced mechanical stiffness, MDA-MB231 were incorporated in 3-D RGD-modified alginate cultures and were evaluated for proliferation, secretion of a molecular marker of enhanced malignancy (i.e., interleukin-8 (IL-8)), and drug responsiveness.
# as §1
SMILES,"MDA-MB231 viability in 2-D culture ([1]; high doses, 2-D culture (FIG. 5B, left panel))",efficacy of doxorubicin treatment in 3-D relative to 2-D conditions [2],"number of viable tumor cells in 2-D culture ([1]; 0.5 μM, 2-D culture (FIG. 5B, right panel))"
N.N.[Cl][Pt][Cl] [cisplatin],did not alter MDA-MB231 viability,,
COc1cccc2c1C(=O)c1c(O)c3c(c(O)c1C2=O)C[C@@](O)(C(=O)CO)C[C@@H]3O[C@H]1C[C@H](N)[C@H](O)[C@H](C)O1 [doxorubicin],,3-D micro-environmental conditions dramatically-reduce the efficacy of doxorubicin treatment relative to 2-D conditions,efficiently reduced the number of viable tumor cells
